From ChEMBL document CHEMBL4418494, “Small molecule inhibitors of AGBL2” (2015)
Calls of active or inactive are those of the source. No cut-off for these calls is given here.

target: T1, Cytosolic carboxypeptidase 2 (Homo sapiens) (UniProt Q5U5Z8); assay: Inhibition of AGBL2 (unknown origin) expressed in HEK293 stably expressing TIG1 assessed as reduction in de-tyrosinated to tyrosinated ratio of alpha-tubulin at 1 uM incubated for 2 hrs by Western blotting analysis relative to control; format: cell-based
T1 sequence (whole entry): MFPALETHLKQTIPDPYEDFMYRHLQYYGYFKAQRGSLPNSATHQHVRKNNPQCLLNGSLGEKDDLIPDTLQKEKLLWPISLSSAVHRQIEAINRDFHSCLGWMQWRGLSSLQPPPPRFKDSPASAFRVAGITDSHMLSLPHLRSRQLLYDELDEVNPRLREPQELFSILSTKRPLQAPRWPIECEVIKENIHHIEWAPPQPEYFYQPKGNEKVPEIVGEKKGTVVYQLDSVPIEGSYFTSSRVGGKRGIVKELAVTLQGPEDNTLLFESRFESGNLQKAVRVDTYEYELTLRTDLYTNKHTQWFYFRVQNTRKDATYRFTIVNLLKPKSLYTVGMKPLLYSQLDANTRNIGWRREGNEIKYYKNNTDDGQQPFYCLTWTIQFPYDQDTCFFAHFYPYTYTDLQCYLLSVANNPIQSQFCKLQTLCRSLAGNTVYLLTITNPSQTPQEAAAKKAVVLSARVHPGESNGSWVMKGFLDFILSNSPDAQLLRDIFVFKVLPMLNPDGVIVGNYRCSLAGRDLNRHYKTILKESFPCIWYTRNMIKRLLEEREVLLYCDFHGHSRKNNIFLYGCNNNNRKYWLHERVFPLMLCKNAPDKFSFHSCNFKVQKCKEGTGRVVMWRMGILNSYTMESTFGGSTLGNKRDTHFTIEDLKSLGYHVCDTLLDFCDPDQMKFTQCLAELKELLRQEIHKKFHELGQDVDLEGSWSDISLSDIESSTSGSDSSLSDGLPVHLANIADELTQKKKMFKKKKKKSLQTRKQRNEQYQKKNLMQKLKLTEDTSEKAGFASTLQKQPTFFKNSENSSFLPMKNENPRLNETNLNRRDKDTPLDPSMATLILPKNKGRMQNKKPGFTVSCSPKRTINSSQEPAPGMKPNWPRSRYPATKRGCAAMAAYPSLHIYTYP

Inhibition (active/inactive call), active:
Cc1cc(C(F)(F)F)cnc1CC(=O)O
Cc1cc(F)cnc1CC(=O)O
CC(C)c1ccc(Sc2ccc(F)cc2CC(=O)O)cc1
O=C(O)Cc1cccc(C(=O)Nc2ccc3c(c2)OCO3)c1
